Data on 49 compounds can be found in patent publication US20220168322A1, “NOVEL STAT3 INHIBITORS IDENTIFIED BY STRUCTURE-BASED VIRTUAL SCREENING INCORPORATING SH2 DOMAIN FLEXIBILITY” (Board of Regents, The University of Texas System, priority 2018, published 2022).

The structures appear in SMILES notation.

The test has as its system G-CSF-stimulated pSTAT3. Nature of the test: Inhibition of G-CSF-stimulated pSTAT3 in Kasumi-1 cells (Luminex, pSTAT3/GAPDH). The format is cell-based. The conditions noted are these: Kasumi1 cells, single concentration of 10 μM, G-CSF 100 ng/ml; pSTAT3/GAPDH relative to DMSO treated cells. The method, then:
[…] Total protein was assayed for pSTAT3 and GAPDH levels by Luminex. GAPDH-normalized pSTAT3 values were divided by the same for untreated cells and expressed as percentage. These values were plotted as a function of Log [M] compound, and IC50 calculated using GraphPad. Data from representative experiments from at least two repeats is shown.
Luminex bead-based assay. Luminex bead-based assays were used to determine levels of pSTAT3, pSTAT1, pSTAT5, and GAPDH, as described (Bharadwaj et al., 2015). […]
In the case of `CCCC(NC(=O)c1ccccc1)C(=O)OCC(=O)Nc1nc2ccc(OC)cc2s1` (stereo not shown) [AG-690/15437974], the “% of Control Stimulated pSTAT3” value stood at 82%. As for `CC(=O)c1ccc(NC(=O)c2ccc(CSc3nnc(NC(=O)CCc4ccccc4)s3)cc2)cc1` [SPEC-3], the figure is 77%. With `Cc1c(C)c2ccc(OCC(=O)Nc3cccc([N+](=O)[O-])c3)c(C)c2oc1=O` [SPEC-9], the “% of Control Stimulated pSTAT3” value amounted to 93%. Turning to `Cc1c(Cl)c(=O)oc2c(C)c(OCc3ccc([N+](=O)[O-])cc3)ccc12` [SPEC-10], the “% of Control Stimulated pSTAT3” value is 87%. For the compound `O=C(COc1ccc(/C=C2/SC(=O)N(CC(=O)N3CCN(c4ccccc4)CC3)C2=O)cc1Br)Nc1ccccc1` [SPEC-11], the “% of Control Stimulated pSTAT3” value came to 86%. As for `NC(=O)COc1ccc(/C=N/NC(=O)CCCOc2ccc(Cl)cc2Cl)cc1` [SPEC-12], the figure is 75%; as for `O=C(O)COc1ccc(/C=N/NC(=O)C2CCCN2S(=O)(=O)c2ccc(Cl)cc2)cc1` (stereo not shown) [SPEC-13], 99%; as for `N#Cc1ccccc1Sc1ccccc1C(=O)Nc1ccc(OCC(=O)N2CCOCC2)cc1` [SPEC-14], 91%. Take `CC(=O)NCCc1ccc(S(=O)(=O)Nc2ccc(C(=O)NCc3ccccc3)cc2)cc1` [SPEC-15]: the “% of Control Stimulated pSTAT3” value stood at 98%. As for `CC1=CC(=O)OC2C=C(OCCCCCCOC3=CC4OC(=O)C=C(C)C4C=C3)C=CC12` (stereo not shown) [SPEC-17], the figure is 106%.

Regarding `O=C(CN1C(=O)S/C(=C\c2ccc(-c3cc(C(=O)O)ccc3Cl)o2)C1=O)Nc1ccccc1` [SPEC-23], the “% of Control Stimulated pSTAT3” value amounted to 114%. To `Cc1ccccc1NC(=O)CN1C(=O)S/C(=C/c2ccc(-c3ccc(Cl)c(C(=O)O)c3)o2)C1=O` [SPEC-24] belongs 105%. As for `COC(=O)CSc1nc2ccc(NC(=O)c3ccccc3C(=O)N3CCN(c4ccccc4)CC3)cc2s1` [SPEC-27], the figure is 61%. In the case of `O=C(CSc1nnc(-c2ccccc2)c(-c2ccccc2)n1)Nc1ccc(S(=O)(=O)Nc2nccs2)cc1` [SPEC-30], the “% of Control Stimulated pSTAT3” value came out at 68%.

In the case of `COc1ccc(CCNC2CC(=O)N(c3ccc(N4C(=O)CC(NCCc5ccc(OC)cc5)C4=O)cc3)C2=O)cc1` (stereo not shown) [SPEC-31], the “% of Control Stimulated pSTAT3” value was found to be 99%. To `CCOC(=O)COc1ccc(-c2nc3ccccc3s2)cc1OC` [SPEC-33] belongs 89%; to `C=CCN1C(=O)NC(=O)/C(=C/c2ccc(OCC(=O)Nc3ccc(C)cc3)cc2)C1=O` [SPEC-35], 69%. To `CCOc1ccc(NC(=O)CN2C(=O)S/C(=C/c3ccc(OCC(N)=O)c(OCC)c3)C2=O)cc1` [SPEC-40] belongs 75%; to `COc1cc(C=Nc2cccc(Cl)c2)ccc1OCC(N)=O` [SPEC-41], 74%. To `O=C(O)c1ccc(-c2ccc(CNCCc3c[nH]c4ccccc34)o2)cc1` [SPEC-42] belongs 118%; to `O=C(O)c1cccc(-c2ccc(CNCc3ccc4c(c3)OCO4)o2)c1` [SPEC-43], 96%; to `COc1ccccc1CCNCc1ccc(-c2cccc(C(=O)O)c2)o1` [SPEC-44], 120%.

For `CCC(Sc1nnc(NC(=O)CCc2ccccc2)s1)C(=O)Nc1ccc(C(C)=O)cc1` (stereo not shown) [SPEC-45], the “% of Control Stimulated pSTAT3” value worked out at 113%.

Take `CC1=NN(c2ccc(C)cc2)C(=O)/C1=C\c1ccc(-c2ccc(C(=O)O)cc2)o1` [SPEC-46]: the “% of Control Stimulated pSTAT3” value came out at 71%. As for `O=C(NNC(=O)[C@@H]1CCCC[C@@H]1C(=O)O)c1ccc(NC(=O)C2CC2)cc1` [SPEC-47], the figure is 104%. For the compound `O=C(CCCCC(=O)NNC(=O)COc1ccc2ccccc2c1)NNC(=O)COc1ccc2ccccc2c1` [SPEC-49], the “% of Control Stimulated pSTAT3” value is reported as 105%.

`CCN(CC)S(=O)(=O)c1ccc(NC(=O)CCCC(=O)Nc2ccc(S(=O)(=O)N(CC)CC)cc2)cc1` [SPEC-51]: the “% of Control Stimulated pSTAT3” value is 87%. As for `CC1CCN(S(=O)(=O)c2ccc(NC(=O)CCCC(=O)Nc3ccc(S(=O)(=O)N4CCC(C)CC4)cc3)cc2)CC1` [SPEC-52], the figure is 120%; as for `O=C(CCCCC(=O)Nc1ccc(S(=O)(=O)Nc2ccc(F)cc2)cc1)Nc1ccc(S(=O)(=O)Nc2ccc(F)cc2)cc1` [SPEC-53], 71%; as for `O=C(CCCCC(=O)Nc1ccc(S(=O)(=O)N2CCCC2)cc1)Nc1ccc(S(=O)(=O)N2CCCC2)cc1` [SPEC-55], 114%.

Consider `CCN1C(=O)/C(=C/c2ccc(OCC(=O)O)c(OC)c2)SC1=S` [SPEC-59], for which the “% of Control Stimulated pSTAT3” value is on record as 78%. To `COc1cc(C=C2C(=O)OC(C)(c3ccccc3)OC2=O)ccc1OCc1cccc(C(=O)O)c1` (stereo not shown) [SPEC-60] belongs 98%. As for `CC(=O)N1CCc2nc(SCC(=O)Nc3cccc(C#N)c3)c(C#N)c(C(F)(F)F)c2C1` [SPEC-62], the figure is 108%. As for `CC(=O)c1ccc(NC(=O)NC2CCCCC2)cc1` [SPEC-63], the figure is 118%; as for `COc1ccc(/C=N/NC(=O)COc2ccc(Cl)cc2)cc1COc1cccc2cccnc12` [SPEC-69], 112%. For the compound `O=C(COC(=O)C1C2CC3C(OC(=O)C31)C2Br)c1ccc(Cl)cc1Cl` (stereo not shown) [SPEC-74], the “% of Control Stimulated pSTAT3” value was determined as 82%. In the case of `COc1cccc(-c2csc(NC(=O)C3CC(=O)N(c4cccc(Cl)c4)C3)n2)c1` (stereo not shown) [SPEC-75], the “% of Control Stimulated pSTAT3” value came out at 55%.

On to `COc1ccc(C(=O)COC(=O)c2ccc(NC(=O)CCCC(=O)O)cc2)cc1` [SPEC-77], for which the “% of Control Stimulated pSTAT3” value was determined as 121%.

As for `CCN1C(=O)N/C(=C/c2ccc(OCc3cccc(C(=O)O)c3)c(Cl)c2)C1=O` [SPEC-79], the “% of Control Stimulated pSTAT3” value came out at 79%.

Regarding `O=C(O)c1ccc(-c2ccc(/C=C3/NC(=O)N(c4ccc(Cl)cc4)C3=O)o2)cc1` [SPEC-80], the “% of Control Stimulated pSTAT3” value is recorded as 89%. To `CCN1C(=O)S/C(=C/c2ccc(OCc3cccc(C(=O)O)c3)c(Br)c2)C1=O` [SPEC-83] belongs 61%. On to `CC(=O)c1ccc(NC(=O)CSc2nnc(CNc3ccc(C)cc3C)n2CC2CCCO2)cc1` (stereo not shown) [SPEC-89], for which the “% of Control Stimulated pSTAT3” value came out at 68%. As for `CC(=O)c1ccc(NC(=O)CSc2nnc(COc3ccc([N+](=O)[O-])cc3)n2C)cc1` [SPEC-92], the figure is 51%; as for `CC(=O)c1ccc(NC(=O)C(C)Oc2ccccc2)cc1` (stereo not shown) [SPEC-94], 97%. As for `COc1cccc(N=C2SC(C(=O)Nc3ccc(C(=O)O)cc3)CC(=O)N2C)c1` (stereo not shown) [SPEC-95], the figure is 104%; as for `O=C(CCN1C(=O)S/C(=C\c2ccc(Cl)cc2)C1=O)Nc1ccc(S(=O)(=O)Nc2nccs2)cc1` [SPEC-97], 55%. As for `CC(=O)c1ccc(NC(=O)CC2S/C(=N\N=C3CCCCCC3)NC2=O)cc1` (stereo not shown) [SPEC-99], the figure is 67%. For the compound `CC(=O)c1ccc(NC(=O)CSc2nn3c(SCC(=O)Nc4ccc(C(C)=O)cc4)nnc3s2)cc1` [SPEC-104], the “% of Control Stimulated pSTAT3” value is recorded as 91%. Turning to `O=C(CN1C(=O)S/C(=C/c2ccc(Cl)cc2)C1=O)Nc1ccc(S(=O)(=O)Nc2nccs2)cc1` [SPEC-105], the “% of Control Stimulated pSTAT3” value is 86%.
